Converted amounts (≈) assume the structure as drawn. The source made the active and inactive calls. The calls are words filed in the database; no cut-off is given here.
Key:
[1] = system: Human immunodeficiency virus 1; assay: Antiviral activity against HIV1 MN infected in human C8166 cells assessed as reduction in antigen gp120 production by ELISA; assay type: functional, organism-based; conditions: Human immunodeficiency virus 1, MN
[2] = Cytotoxicity against uninfected human C8166 cells by XTT-formazan method; assay type: cell-based; conditions: read-out: TC50 (the source's name)
[3] = system: Human immunodeficiency virus 1; assay: Antiviral activity against HIV1 3B infected in human C8166 cells assessed as syncytia formation at 5 fold EC50 preincubated for 5 to 6 days before infection measured after 2 days postinfection by XTT-formazan method; assay type: functional, organism-based
[4] = Selectivity index, ratio of TC50 for uninfected human C8166 cells to EC50 for HIV1 MN infected in human C8166 cells; assay type: toxicity, cell-based; conditions: uninfected C8166 cells and HIV-1 MN-infected C8166 cells, read-out: Selectivity Index

Structure (SMILES)	EC50 [1]	CC50 [2]	Activity [3]	selectivity ratio [4]
COc1cc(O[C@@H]2O[C@H](CO[C@@H]3O[C@@H](C)[C@H](O)[C@@H](O)[C@H]3O)[C@@H](O)[C@H](O)[C@H]2O)c2c(O)c3c(=O)oc(C)cc3c(OC)c2c1	30 µg/mL (≈ 49.1 µM)	100 µg/mL (≈ 164 µM)	inactive	3.3
COc1cc(O[C@@H]2O[C@H](CO[C@@H]3OC[C@H](O)[C@H](O)[C@H]3O)[C@@H](O)[C@H](O)[C@H]2O)c2c(O)c3c(=O)oc(C)cc3c(OC)c2c1	18 µg/mL (≈ 30.2 µM)	160 µg/mL (≈ 268 µM)	inactive	8.9
COc1cc(O[C@@H]2O[C@H](CO[C@@H]3O[C@H](CO)[C@@H](O)[C@H](O)[C@H]3O)[C@@H](O)[C@H](O)[C@H]2O)c2c(O)c3c(=O)oc(C)cc3c(OC)c2c1	75 µg/mL (≈ 120 µM)	150 µg/mL (≈ 239 µM)	inactive	2
Cc1cn([C@H]2C[C@H](N=[N+]=[N-])[C@@H](CO)O2)c(=O)[nH]c1=O [ZIDOVUDINE]	0.016 µg/mL (≈ 0.0599 µM)	> 1000 µg/mL		
COc1cc(O[C@@H]2O[C@H](CO)[C@@H](O)[C@H](O)[C@H]2O)c2c(O)c3c(=O)oc(C)cc3c(OC)c2c1	38 µg/mL (≈ 81.8 µM)	160 µg/mL (≈ 345 µM)	inactive	4.2
